In patent publication US20250296959A1, “B7-H3 TARGETING PEPTIDES AND CONSTRUCTS THEREOF” (Mariana Oncology Inc., priority 2024, published 2025):
Starred links: 1 amine or outer side, 2 acyl side, 3 side chain; linkers in the order of their positions; H or OH if unused. Positions of bridges follow the written chain, without caps; N, C: chain ends. Non-standard residues stand in square brackets, D forms with d. Residues, ends and D or L forms follow the SMILES beside them. Groups on a side chain read outwards from the residue. *: point of attachment. X12 = O=C(O)CN1CCN(CC(=O)O)CCN([C@@H](CCC(=O)*)C(=O)O)CCN(CC(=O)O)CC1; Ala(piperidin-4-yl) = O=C([C@H](CC1CCN([*:3])CC1)N[*:1])[*:2]; DOTA = O=C(O)CN1CCN(CC(=O)O)CCN(CC(=O)*)CCN(CC(=O)O)CC1; Trp(5-F) = N[C@@H](Cc1c[nH]c2ccc(F)cc12)C(=O)O; 1Nal = N[C@@H](Cc1cccc2ccccc12)C(=O)O; 2Nal = N[C@@H](Cc1ccc2ccccc2c1)C(=O)O; Ala(4-THP) = N[C@@H](CC1CCOCC1)C(=O)O; Val(3-OH) = CC(C)(O)[C@H](N)C(=O)O; PEG4 = NCCOCCOCCOCCOCCC(=O)O; Tle = CC(C)(C)[C@H](N)C(=O)O; hLeu = CC(C)CC[C@H](N)C(=O)O

Target: T1, human 4lg B7-H3 (Homo sapiens, UniProt Q5ZPR3)
T1 sequence (Q5ZPR3 29-534): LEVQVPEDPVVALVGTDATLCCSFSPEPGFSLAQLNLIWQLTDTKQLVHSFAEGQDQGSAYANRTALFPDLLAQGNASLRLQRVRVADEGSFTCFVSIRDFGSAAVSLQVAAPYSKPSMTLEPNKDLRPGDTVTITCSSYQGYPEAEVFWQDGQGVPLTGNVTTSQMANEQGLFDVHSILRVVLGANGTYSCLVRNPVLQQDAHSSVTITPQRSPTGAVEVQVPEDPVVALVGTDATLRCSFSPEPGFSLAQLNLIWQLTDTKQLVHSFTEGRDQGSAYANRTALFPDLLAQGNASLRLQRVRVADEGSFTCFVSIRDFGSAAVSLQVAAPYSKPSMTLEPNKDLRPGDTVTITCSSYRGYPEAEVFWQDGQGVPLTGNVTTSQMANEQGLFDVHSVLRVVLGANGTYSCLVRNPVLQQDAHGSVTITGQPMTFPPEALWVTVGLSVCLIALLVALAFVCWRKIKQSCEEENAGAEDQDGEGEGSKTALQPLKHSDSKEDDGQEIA
Assay: Affinity determination by surface plasmon resonance (SPR) to 4Ig B7-H3
Details: 4Ig B7-H3

[1] = SPR KD—37° C., 37° C. flow cell temperature

Row | SMILES | Kd (SPR KD—25° C., 25° C. flow cell temperature) [nM] | Kd [1] [nM]
1 | CC(=O)N[C@@H](CCC(C)C)C(=O)N[C@@H](Cc1ccc(O)cc1)C(=O)N[C@H]1CSSC[C@@H](C(=O)N[C@@H](Cc2ccc3ccccc3c2)C(=O)N[C@@H](Cc2ccccc2)C(=O)N[C@H](C(=O)N[C@H](CCCCNC(=O)CN2CCN(CC(=O)O)CCN(CC(=O)O)CCN(CC(=O)O)CC2)C(=O)O)[C@@H](C)O)NC(=O)[C@H](Cc2ccc(O)cc2)NC(=O)[C@H](C(C)C)NC(=O)[C@H](CC(=O)O)NC(=O)[C@H](Cc2ccc(O)cc2)NC(=O)[C@H](CCCCN)NC(=O)CNC(=O)[C@H](C(C)C)NC1=O [compound 159, Ac-hLeu-Y-C-V-G-K-Y-D-V-Y-C-2Nal-F-Thr-dLys(DOTA)-CONH2] (Ac-[hLeu]YCVGKYDVYC[2Nal]FT[dK](DOTA)-OH; disulfide 3-11) | 10 to 100 | –
2 | CC(=O)N[C@@H](CCC(C)C)C(=O)N[C@@H](Cc1ccc(O)cc1)C(=O)N[C@H]1CSSC[C@@H](C(=O)N[C@@H](Cc2c[nH]c3ccc(F)cc23)C(=O)N[C@@H](Cc2ccccc2)C(=O)N[C@H](C(=O)N[C@H](CCCCNC(=O)CC[C@@H](C(=O)O)N2CCN(CC(=O)O)CCN(CC(=O)O)CCN(CC(=O)O)CC2)C(=O)O)C(C)(C)O)NC(=O)[C@H](Cc2ccc(O)cc2)NC(=O)[C@H](C(C)C)NC(=O)[C@H](CC(=O)O)NC(=O)[C@H](CC2CCOCC2)NC(=O)[C@H](CC2CCNCC2)NC(=O)CNC(=O)[C@H](C(C)(C)C)NC1=O [compound 439, Ac-hLeu-Y-C-Tbg-G-PipAla-ThpA-D-V-Y-C-5FW-F-hydroxyVal-dLys(S-DOTAGA)-COOH] (Ac-[hLeu]YC[Tle]G[Ala(piperidin-4-yl)][Ala(4-THP)]DVYC[Trp(5-F)]F[Val(3-OH)][dK](X12)-OH; disulfide 3-11) | – | < 1
3 | CC(=O)N[C@@H](CCC(C)C)C(=O)N[C@@H](Cc1ccc(O)cc1)C(=O)N[C@H]1CSSC[C@@H](C(=O)N[C@@H](Cc2cccc3ccccc23)C(=O)N[C@@H](Cc2ccccc2)C(=O)N[C@H](C(=O)N[C@H](C)C(=O)O)C(C)(C)O)NC(=O)[C@H](Cc2ccc(O)cc2)NC(=O)[C@H](C(C)C)NC(=O)[C@H](CC(=O)O)NC(=O)[C@H](CC2CCN(C(=O)CCOCCOCCOCCOCCNC(=O)CN3CCN(CC(=O)O)CCN(CC(=O)O)CCN(CC(=O)O)CC3)CC2)NC(=O)[C@H](CC2CCNCC2)NC(=O)CNC(=O)[C@H](C(C)(C)C)NC1=O [compound 453, Ac-hLeu-Y-C-Tbg-G-PipAla-Pip(PEG4-DOTA)Ala-D-V-Y-C-1Nal-F-hydroxyVal-dAla-COOH] (Ac-[hLeu]YC[Tle]G[Ala(piperidin-4-yl)][Ala(piperidin-4-yl)]([PEG4-DOTA])DVYC[1Nal]F[Val(3-OH)][dA]-OH; disulfide 3-11) | – | < 1
4 | CC(=O)N[C@@H](CCC(C)C)C(=O)N[C@@H](Cc1ccc(O)cc1)C(=O)N[C@H]1CSSC[C@@H](C(=O)N[C@@H](Cc2c[nH]c3ccc(F)cc23)C(=O)N[C@@H](Cc2ccccc2)C(=O)N[C@H](C(N)=O)C(C)(C)O)NC(=O)[C@H](Cc2ccc(O)cc2)NC(=O)[C@H](C(C)C)NC(=O)[C@H](CC(=O)O)NC(=O)[C@H](CC2CCOCC2)NC(=O)[C@H](CC2CCN(C(=O)CCOCCOCCOCCOCCNC(=O)CN3CCN(CC(=O)O)CCN(CC(=O)O)CCN(CC(=O)O)CC3)CC2)NC(=O)CNC(=O)[C@H](C(C)(C)C)NC1=O [compound 382, Ac-hLeu-Y-C-Tbg-G-Pip(PEG4-DOTA)Ala-ThpA-D-V-Y-C-5FW-F-hydroxyVal-CONH2] (Ac-[hLeu]YC[Tle]G[Ala(piperidin-4-yl)]([PEG4-DOTA])[Ala(4-THP)]DVYC[Trp(5-F)]F[Val(3-OH)]-NH2; disulfide 3-11) | – | 1 to 10
